Here are results for one compound from patent publication US8501792B2, “Treating cancer with desthiazolyl ritonavir” (priority 2008, dated 2013).

The assay deals with Purified mammalian Hsp90. Description: Hsp90 binding on CM-5 BIAcore chip (surface plasmon resonance). An excerpt: Inhibition of Hsp90 can be evaluated by surface plasmon resonance studies of a compound of formula I, using a CM-5 Biacore chip on which Hsp90 (Stressgen, Ann Arbor) has been immobilized. This method can also be used to evaluate the chaperoning activity of a compound of formula I by evaluation of luciferase refolding. See Examples 4 and 9.
Purified mammalian Hsp90 was attached to a CM-5 BIAcore chip through an NHS ester linkage. After attachment of the Hsp90 and blocking the chip with BSA, M1 drug or a 17-AAG control was circulated through a microfluidic circuit and change in refractive index was measured by quantification of the RU value for each drug concentration. In the case of the 17-AAG control the binding was saturable and based on the kon and koff measurements, the KD was estimated to be in the 1 microM range. […] This means that there are significant differences in the binding of M-1 and may indicate alteration of the Hsp90 structure.
A general note: SPR reads the build-up and loss of mass on a sensor chip optically.

On to `C=CCNC1=C2C[C@@H](C)C[C@H](OC)[C@H](O)[C@@H](C)/C=C(\C)[C@H](OC(N)=O)[C@@H](OC)/C=C\C=C(/C)C(=O)NC(=CC1=O)C2=O` [17-AAG], for which the “binding to Hsp90, saturability” value (RU value versus drug concentration, FIG. 11) is reported as “saturable”. In addition, the Kd (estimated from kon and koff measurements) was around 1000 nM.

One may read the Kd as the concentration at which binding is half-saturated.
